Measured values published in patent US7632829B2, “Diazepan derivatives” (Hoffmann-La Roche Inc., priority 2006, dated 2009).

Target: T1, human chemokine receptor 2 isoform B (Homo sapiens, UniProt P41597)
T1 construct: host or cells: CHOK1-CCR2B-A5 (CHO-K1)
T1 sequence (P41597 1-360 isoform P41597-2): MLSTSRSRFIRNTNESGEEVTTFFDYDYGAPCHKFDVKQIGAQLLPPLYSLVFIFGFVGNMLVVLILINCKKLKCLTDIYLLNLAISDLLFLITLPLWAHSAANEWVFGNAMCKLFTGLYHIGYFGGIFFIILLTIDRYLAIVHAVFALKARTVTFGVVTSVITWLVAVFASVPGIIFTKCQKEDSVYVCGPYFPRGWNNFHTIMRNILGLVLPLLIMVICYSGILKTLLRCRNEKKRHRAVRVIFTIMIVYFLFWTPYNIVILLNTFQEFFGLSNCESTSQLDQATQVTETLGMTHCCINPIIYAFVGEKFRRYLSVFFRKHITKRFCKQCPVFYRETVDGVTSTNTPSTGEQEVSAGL
Assay: Calcium mobilization assay (FLIPR, CHOK1-CCR2B-A5 cells, 20 nM MCP-1)
Type: cell-based
Conditions: Ca mobilisation assay, CCR2, antagonist activity vs 20 nM MCP-1
Method: CHOK1-CCR2B-A5 cells (from Euroscreen) stably overexpressing the human chemokine receptor 2 isoform B were cultured in Nutrient Hams F12 medium supplemented with 5% FBS, 100 U/ml penicillin, 100 μg/ml streptomycin, 400 μg/ml G418 and 5 μg/ml puromycin.
For the assay cells were grown overnight in 384-well black clear flat bottom polystyrene plates (Costar) at 37° C. at 5% CO2. After washing with DMEM, 20 mM Hepes, 2.5 mM probenecid, 0.1% BSA (DMEM assay buffer) cells were loaded with 4 μM Fluo-4 in the same DMEM assay buffer for 2 hours at 30° C. Excess dye was removed and cells were washed with DMEM assay buffer. 384-well compound plates were prepared with DMEM assay buffer/0.5% DMSO with or without various concentrations of test compounds. Usually compounds were tested for agonist and antagonist activity.
Test compounds were added to the assay plate and agonist activity was monitored as fluorescence for 80 seconds with a FLIPR (488 nm excitation; 510-570 nm emission; Molecular Devices). After 20-30 min. of incubation at 30° C., 20 nM MCP-1 (R&D; Roche) was added and fluorescence was monitored again for 80 seconds. Increases in intracellular calcium are reported as maximum fluorescence after agonist exposure minus basal fluorescence before exposure. Antagonist activity is indicated as inhibitor concentration required for 50% inhibition of specific calcium increases.

| IC50 | Compound |
| --- | --- |
| 3 nM | COC(=O)C(CCCN1CCCCC1)N1CCN(C(=O)/C=C/c2ccc(Cl)c(Cl)c2)CCC1=O (racemic) [Example 179, (rac)-2-{4-[(E)-3-(3,4-Dichloro-phenyl)-acryloyl]-7-oxo-[1,4]diazepan-1-yl}-5-piperidin-1-yl-pentanoic acid methyl ester] |
| 319 nM | O=C(O)C(CCCN1CCCCC1)N1CCN(C(=O)/C=C/c2ccc(Cl)c(Cl)c2)CCC1=O (racemic) [Example 180, Lithium; (rac)-2-{4-[(E)-3-(3,4-dichloro-phenyl)-acryloyl]-7-oxo-[1,4]diazepan-1-yl}-5-piperidin-1-yl-pentanoate] |
| 3 nM | O=C(/C=C/c1ccc(Cl)c(Cl)c1)N1CCC(=O)N(C(CO)CCCN2CCCCC2)CC1 (racemic) [Example 181, (rac)-1-[(E)-3-(3,4-Dichloro-phenyl)-acryloyl]-4-(1-hydroxymethyl-4-piperidin-1-yl-butyl)-[1,4]diazepan-5-one] |
| 1230 nM | O=C(O)C(CN1CCCCC1)CN1CCN(C(=O)/C=C/c2ccc(Cl)c(Cl)c2)CCC1=O (racemic) [Example 183, Lithium; (rac)-3-{4-[(E)-3-(3,4-dichloro-phenyl)-acryloyl]-7-oxo-[1,4]diazepan-1-yl}-2-piperidin-1-ylmethyl-propionate] |
| 385 nM | CC1CN(C(=O)/C=C/c2ccc(Cl)c(Cl)c2)CCN(CCCN2CCCCC2)C1=O (racemic) [Example 187, (rac)-1-[(E)-3-(3,4-Dichloro-phenyl)-acryloyl]-6-methyl-4-(3-piperidin-1-yl-propyl)-[1,4]diazepan-5-one] |
| 325 nM | CC1(O)CCCN(CCCN2CCN(C(=O)/C=C/c3ccc(F)c(Cl)c3)CCC2=O)C1 (racemic) [Example 205] |
| 1140 nM | O=C(/C=C/c1ccc(F)c(Cl)c1)N1CCC(=O)N(CCCN2CCCCC2CO)CC1 (racemic) [Example 210] |
| 363 nM | O=C(/C=C/c1ccc(F)c(Cl)c1)N1CCC(=O)N(CCCN2CCCC(CO)C2)CC1 (racemic) [Example 211] |
| 356 nM | O=C(/C=C/c1ccc(F)c(Cl)c1)N1CCC(=O)N(CCCN2CC[C@H](CO)[C@H](O)C2)CC1 (racemic) [Example 215] |
| 726 nM | COC[C@H]1CCN(CCCN2CCN(C(=O)/C=C/c3ccc(F)c(Cl)c3)CCC2=O)C[C@H]1O (racemic) [Example 216] |
| 45 nM | C[C@]1(CO)CCN(CCCN2CCN(C(=O)/C=C/c3ccc(F)c(Cl)c3)CCC2=O)C[C@H]1O (racemic) [Example 219] |
| 169 nM | C[C@@]1(CO)CCN(CCCN2CCN(C(=O)/C=C/c3ccc(F)c(Cl)c3)CCC2=O)C[C@H]1O (racemic) [Example 220] |
| 13 nM | CC1(C)CCN(CCCN2CCN(C(=O)/C=C/c3ccc(F)c(Cl)c3)CCC2=O)CC1O (racemic) [Example 223] |
| 464 nM | C[C@@H]1[C@H](O)CCCN1CCCN1CCN(C(=O)/C=C/c2ccc(Cl)c(Cl)c2)CCC1=O (racemic) [Example 226, (rac,cis)-1-[(E)-3-(3,4-Dichloro-phenyl)-acryloyl]-4-[3-(3-hydroxy-2-methyl-piperidin-1-yl)-propyl]-[1,4]diazepan-5-one] |
| 409 nM | O=C(/C=C/c1ccc(Cl)c(Cl)c1)N1CCC(=O)N(CCCN2CCCCC2CO)CC1 (racemic) [Example 227] |
| 149 nM | O=C(/C=C/c1ccc(Cl)c(Cl)c1)N1CCC(=O)N(CCCN2CCCC(CO)C2)CC1 (racemic) [Example 228] |
| 215 nM | O=C(/C=C/c1ccc(Cl)c(Cl)c1)N1CCC(=O)N(CCCN2CC[C@@H](F)[C@H](O)C2)CC1 (racemic) [Example 230, (rac,trans)-1-[(E)-3-(3,4-Dichloro-phenyl)-acryloyl]-4-[3-(4-fluoro-3-hydroxy-piperidin-1-yl)-propyl]-[1,4]diazepan-5-one] |
| 91 nM | CC1(O)CCCN(CCCN2CCN(C(=O)/C=C/c3ccc(Cl)c(Cl)c3)CCC2=O)C1 (racemic) [Example 232] |

| IC50 | Compound |
| --- | --- |
| 359 nM | O=C(/C=C/c1ccc(Cl)c(Cl)c1)N1CCC(=O)N(CCCN2CC[C@@H](O)[C@@H](F)C2)CC1 (racemic) [Example 233, (rac, cis)-1-[(E)-3-(3,4-Dichloro-phenyl)-acryloyl]-4-[3-(3-fluoro-4-hydroxy-piperidin-1-yl)-propyl]-[1,4]diazepan-5-one] |
| 112 nM | CC1CCCN(CCCN2CCN(C(=O)/C=C/c3ccc(Cl)c(Cl)c3)CCC2=O)C1 (racemic) [Example 235] |
| 565 nM | COCC1CCCN(CCCN2CCN(C(=O)/C=C/c3ccc(Cl)c(Cl)c3)CCC2=O)C1 (racemic) [Example 236] |
| 54 nM | CC1CCN(CCCN2CCN(C(=O)/C=C/c3ccc(Cl)c(Cl)c3)CCC2=O)CC1O (racemic) [Example 238] |
| 133 nM | CC1CN(CCCN2CCN(C(=O)/C=C/c3ccc(Cl)c(Cl)c3)CCC2=O)CCC1O (racemic) [Example 243] |
| 421 nM | CC(C)N1CCN(CCCN2CCN(C(=O)/C=C/c3ccc(Cl)c(Cl)c3)CCC2=O)CC1C (racemic) [Example 246, (rac)-1-[(E)-3-(3,4-Dichloro-phenyl)-acryloyl]-4-[3-(4-isopropyl-3-methyl-piperazin-1-yl)-propyl]-[1,4]diazepan-5-one] |
| 226 nM | CC1(CO)CCCN(CCCN2CCN(C(=O)/C=C/c3ccc(Cl)c(Cl)c3)CCC2=O)C1 (racemic) [Example 248] |
| 1250 nM | COCC1(C)CCCN(CCCN2CCN(C(=O)/C=C/c3ccc(Cl)c(Cl)c3)CCC2=O)C1 (racemic) [Example 249] |
| 812 nM | CC1(CO)CCCCN1CCCN1CCN(C(=O)/C=C/c2ccc(Cl)c(Cl)c2)CCC1=O (racemic) [Example 250] |
| 8 nM | O=C(/C=C/c1ccc(Cl)c(Cl)c1)N1CCC(=O)N(CCCN2CCC3(CC3)C(O)C2)CC1 (racemic) [Example 251] |
| 120 nM | O=C(/C=C/c1ccc(Cl)c(Cl)c1)N1CCC(=O)N(CCCN2CCC(O)C3(CC3)C2)CC1 (racemic) [Example 252] |
| 132 nM | C[C@@H]1CN(CCCN2CCN(C(=O)/C=C/c3ccc(Cl)c(Cl)c3)CCC2=O)CC[C@@H]1O (racemic) [Example 253] |
| 561 nM | CC1(CO)CCCN1CCCN1CCN(C(=O)/C=C/c2ccc(Cl)c(Cl)c2)CCC1=O (racemic) [Example 255] |
| 1070 nM | COC(=O)NC1CCCN(CCCN2CCN(C(=O)/C=C/c3ccc(Cl)c(Cl)c3)CCC2=O)C1 (racemic) [Example 256] |
| 182 nM | CC1(C)CN(CCCN2CCN(C(=O)/C=C/c3ccc(Cl)c(Cl)c3)CCC2=O)CCC1O (racemic) [Example 257] |
| 214 nM | COC[C@H]1CCN(CCCN2CCN(C(=O)/C=C/c3ccc(Cl)c(Cl)c3)CCC2=O)C[C@H]1O (racemic) [Example 267, (rac,cis)-1-[(E)-3-(3,4-Dichloro-phenyl)-acryloyl]-4-[3-(3-hydroxy-4-methoxymethyl-piperidin-1-yl)-propyl]-[1,4]diazepan-5-one] |
| 215 nM | O=C(/C=C/c1ccc(Cl)c(Cl)c1)N1CCC(=O)N(CCCN2CC[C@H](CO)[C@@H](O)C2)CC1 (racemic) [Example 268, (rac,trans)-1-[(E)-3-(3,4-Dichloro-phenyl)-acryloyl]-4-[3-(3-hydroxy-4-hydroxymethyl-piperidin-1-yl)-propyl]-[1,4]diazepan-5-one] |
